We go through 20 compounds from ChEMBL document CHEMBL4808203, “Angiokinase inhibition of VEGFR-2, PDGFR and FGFR and cell growth inhibition in lung cancer: Design, synthesis, biological evaluation and molecular docking of novel azaheterocyclic coumarin derivatives” (Bioorg Med Chem Lett, 2021).

For experiment [1], the system named is A549. As to the kind of experiment: Cytotoxicity against human A549 cells assessed as cell viability measured by MTT assay. The experiment is classed as functional, cell-based. On the technique in general: Tetrazolium dyes change colour on reduction, which living cells bring about.
The test system of a further experiment is WI-38. As to the kind of experiment: Cytotoxicity against human WI-38 cells assessed as cell viability measured by MTT assay. The experiment is classed as ADME, cell-based.
Experiment [2] deals with A549. The experiment is described as follows: Induction of apoptosis in human A549 cells assessed as early apoptotic cells measured after 24 hrs by Annexin-V-FITC/propidium iodide staining based assay (reference value: 0.39%). It is filed as functional.
The test system of experiment [3] is A549. As to the kind of experiment: Cell cycle arrest in human A549 cells assessed as accumulation at […] phase measured after 24 hrs (reference value: 42.28%). The experiment is classed as functional.
Experiment [4] deals with A549. The experiment is described as follows: Induction of apoptosis in human A549 cells assessed as late apoptotic cells measured after 24 hrs by Annexin-V-FITC/propidium iodide staining based assay (reference value: 0.15%). It is filed as functional.
In experiment [5] the target is Epidermal growth factor receptor (Homo sapiens, UniProt P00533). The experiment is described as follows: Inhibition of EGFR (unknown origin).
Experiment [6] has as its system A549. As to the kind of experiment: Cell cycle arrest in human A549 cells assessed as accumulation at pre-G1 phase measured after 24 hrs (reference value: 3.83%). The experiment is classed as functional.
Experiment [7] concerns A549. The experiment is described as follows: Cell cycle arrest in human A549 cells assessed as accumulation at G2/M phase measured after 24 hrs (reference value: 28.28%). It is filed as functional.
Experiment [8] addresses Vascular endothelial growth factor receptor 2 (Homo sapiens, UniProt P35968). The experiment is described as follows: Inhibition of VEGFR2 (unknown origin).
Experiment [9] deals with Platelet-derived growth factor receptor beta (Homo sapiens, UniProt P09619). The experiment is described as follows: Inhibition of PDGFRbeta (unknown origin).
Experiment [10] relates to A549. The experiment is described as follows: Induction of apoptosis in human A549 cells assessed as necrotic cells measured after 24 hrs by Annexin-V-FITC/propidium iodide staining based assay (reference value: 1.29%). It is filed as functional.
For experiment [11], the target named is Fibroblast growth factor receptor (Homo sapiens, UniProt P22607+P11362+P22455+P21802). The experiment is described as follows: Inhibition of FGFR (unknown origin). It is filed as protein assay.
The subject of experiment [12] is A549. As to the kind of experiment: Cell cycle arrest in human A549 cells assessed as accumulation at S phase measured after 24 hrs (reference value: 36.58%). The experiment is classed as functional.

Chain of Epidermal growth factor receptor (P00533 whole entry): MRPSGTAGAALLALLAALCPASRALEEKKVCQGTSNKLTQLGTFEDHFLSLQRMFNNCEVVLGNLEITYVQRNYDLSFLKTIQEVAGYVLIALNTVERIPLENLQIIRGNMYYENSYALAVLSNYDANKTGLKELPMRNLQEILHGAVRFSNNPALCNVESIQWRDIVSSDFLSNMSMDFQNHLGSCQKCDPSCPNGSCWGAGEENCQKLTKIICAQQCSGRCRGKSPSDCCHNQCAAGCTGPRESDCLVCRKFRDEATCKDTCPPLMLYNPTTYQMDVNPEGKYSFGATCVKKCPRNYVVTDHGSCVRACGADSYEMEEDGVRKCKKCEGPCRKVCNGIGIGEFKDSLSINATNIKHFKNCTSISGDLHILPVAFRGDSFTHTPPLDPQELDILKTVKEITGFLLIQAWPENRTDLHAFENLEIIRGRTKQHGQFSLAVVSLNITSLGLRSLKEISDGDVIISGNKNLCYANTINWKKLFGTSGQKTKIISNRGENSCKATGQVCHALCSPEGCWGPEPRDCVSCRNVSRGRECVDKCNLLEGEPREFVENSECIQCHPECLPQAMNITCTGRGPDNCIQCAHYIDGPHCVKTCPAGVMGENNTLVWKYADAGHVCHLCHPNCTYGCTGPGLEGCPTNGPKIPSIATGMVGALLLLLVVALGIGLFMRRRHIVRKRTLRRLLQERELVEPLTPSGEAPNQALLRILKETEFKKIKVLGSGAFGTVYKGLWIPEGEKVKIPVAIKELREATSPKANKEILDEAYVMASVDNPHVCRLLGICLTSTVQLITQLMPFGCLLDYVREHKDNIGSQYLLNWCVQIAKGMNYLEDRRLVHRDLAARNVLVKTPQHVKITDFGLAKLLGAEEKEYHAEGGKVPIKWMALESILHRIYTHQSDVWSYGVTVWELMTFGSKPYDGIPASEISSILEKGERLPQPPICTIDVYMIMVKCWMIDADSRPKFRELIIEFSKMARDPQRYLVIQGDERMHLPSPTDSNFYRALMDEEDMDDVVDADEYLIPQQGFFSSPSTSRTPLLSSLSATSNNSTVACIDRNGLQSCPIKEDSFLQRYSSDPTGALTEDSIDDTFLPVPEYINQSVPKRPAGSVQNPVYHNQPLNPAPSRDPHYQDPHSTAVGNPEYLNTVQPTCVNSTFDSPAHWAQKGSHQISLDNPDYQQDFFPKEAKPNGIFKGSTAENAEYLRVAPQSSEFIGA
Chain of Platelet-derived growth factor receptor beta (P09619 whole entry): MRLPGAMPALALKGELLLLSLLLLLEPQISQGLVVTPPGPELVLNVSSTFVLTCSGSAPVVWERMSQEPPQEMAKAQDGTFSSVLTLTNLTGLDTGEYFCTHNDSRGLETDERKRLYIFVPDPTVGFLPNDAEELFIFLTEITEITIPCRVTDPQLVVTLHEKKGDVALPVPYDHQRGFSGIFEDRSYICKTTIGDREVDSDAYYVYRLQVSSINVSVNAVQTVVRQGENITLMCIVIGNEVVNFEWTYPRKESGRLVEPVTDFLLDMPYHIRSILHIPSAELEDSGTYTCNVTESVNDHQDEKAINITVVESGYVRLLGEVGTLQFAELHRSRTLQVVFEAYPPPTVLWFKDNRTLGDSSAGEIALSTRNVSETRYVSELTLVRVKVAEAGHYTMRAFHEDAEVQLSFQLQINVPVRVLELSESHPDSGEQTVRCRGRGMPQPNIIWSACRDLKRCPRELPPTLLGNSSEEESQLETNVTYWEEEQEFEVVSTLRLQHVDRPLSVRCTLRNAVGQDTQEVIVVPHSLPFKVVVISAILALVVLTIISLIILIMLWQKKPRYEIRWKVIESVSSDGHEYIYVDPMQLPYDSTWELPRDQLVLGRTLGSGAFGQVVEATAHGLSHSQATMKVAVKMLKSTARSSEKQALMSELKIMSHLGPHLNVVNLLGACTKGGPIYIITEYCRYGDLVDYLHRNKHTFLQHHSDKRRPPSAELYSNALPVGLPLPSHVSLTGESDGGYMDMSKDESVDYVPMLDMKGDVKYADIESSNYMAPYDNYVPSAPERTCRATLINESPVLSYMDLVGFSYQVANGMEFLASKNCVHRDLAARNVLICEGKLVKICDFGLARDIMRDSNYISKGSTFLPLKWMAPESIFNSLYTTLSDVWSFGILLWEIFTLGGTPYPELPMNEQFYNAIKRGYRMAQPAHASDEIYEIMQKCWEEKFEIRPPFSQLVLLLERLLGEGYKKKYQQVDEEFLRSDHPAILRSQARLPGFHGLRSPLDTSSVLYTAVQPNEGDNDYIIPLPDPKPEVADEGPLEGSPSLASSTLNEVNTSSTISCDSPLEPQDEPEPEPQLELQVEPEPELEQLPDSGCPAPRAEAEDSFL
Chain of Vascular endothelial growth factor receptor 2 (P35968 whole entry): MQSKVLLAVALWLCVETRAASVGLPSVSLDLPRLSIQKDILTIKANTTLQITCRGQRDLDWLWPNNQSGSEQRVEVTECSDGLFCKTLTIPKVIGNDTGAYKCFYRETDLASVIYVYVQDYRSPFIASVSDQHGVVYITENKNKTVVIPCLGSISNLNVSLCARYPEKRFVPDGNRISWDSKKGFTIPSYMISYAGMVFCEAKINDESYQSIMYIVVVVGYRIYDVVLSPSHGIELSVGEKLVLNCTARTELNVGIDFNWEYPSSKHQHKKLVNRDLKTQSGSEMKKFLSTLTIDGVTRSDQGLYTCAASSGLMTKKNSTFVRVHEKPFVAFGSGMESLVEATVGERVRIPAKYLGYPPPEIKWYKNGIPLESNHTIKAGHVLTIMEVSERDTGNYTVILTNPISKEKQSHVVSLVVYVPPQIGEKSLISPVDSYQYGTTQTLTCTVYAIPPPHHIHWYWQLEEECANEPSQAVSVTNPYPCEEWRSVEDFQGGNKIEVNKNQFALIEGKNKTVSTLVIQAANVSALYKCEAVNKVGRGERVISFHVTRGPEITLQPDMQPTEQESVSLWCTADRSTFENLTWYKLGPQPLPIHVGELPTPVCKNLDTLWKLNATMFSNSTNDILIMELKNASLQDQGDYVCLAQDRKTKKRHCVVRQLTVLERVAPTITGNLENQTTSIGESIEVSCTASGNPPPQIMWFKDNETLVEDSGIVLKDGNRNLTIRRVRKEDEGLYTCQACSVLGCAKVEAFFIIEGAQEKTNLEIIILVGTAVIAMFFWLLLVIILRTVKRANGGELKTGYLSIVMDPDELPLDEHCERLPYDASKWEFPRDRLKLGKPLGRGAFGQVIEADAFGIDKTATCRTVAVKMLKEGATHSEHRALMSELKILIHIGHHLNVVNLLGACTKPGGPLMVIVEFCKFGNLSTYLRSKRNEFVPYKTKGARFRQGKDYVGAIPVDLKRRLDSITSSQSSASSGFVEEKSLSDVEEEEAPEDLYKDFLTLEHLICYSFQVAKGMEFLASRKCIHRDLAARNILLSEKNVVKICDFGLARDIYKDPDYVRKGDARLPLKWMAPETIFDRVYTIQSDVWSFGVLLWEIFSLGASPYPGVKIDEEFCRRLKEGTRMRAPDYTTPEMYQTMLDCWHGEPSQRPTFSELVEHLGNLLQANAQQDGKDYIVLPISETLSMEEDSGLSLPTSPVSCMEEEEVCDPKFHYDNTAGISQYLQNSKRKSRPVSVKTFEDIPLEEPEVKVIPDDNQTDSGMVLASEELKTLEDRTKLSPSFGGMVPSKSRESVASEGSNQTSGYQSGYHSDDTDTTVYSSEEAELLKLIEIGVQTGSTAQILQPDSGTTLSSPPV

With `COc1ccc(-c2cc(-c3c(O)c4ccccc4oc3=O)nc(N)c2C#N)cc1OC`, the half-inhibitory concentration (IC50) with A549 [1] came to 7.38 µM.

Turning to `N#Cc1c(-c2ccc(F)cc2)cc(-c2c(O)c3ccccc3oc2=O)nc1N`, the IC50 in the experiment on A549 [1] stood at 22.3 µM.

`COc1cc(-c2cc(-c3c(O)c4ccccc4oc3=O)nc(S)n2)ccc1O`: the concentration for half-maximal inhibition (IC50) with A549 [1] turned out to be 36.1 µM.

As to `O=c1oc2ccccc2c(O)c1-c1cc(-c2ccc(F)cc2)nc(S)n1`, the concentration for half-maximal inhibition (IC50) with A549 [1] is 21.1 µM.

On to `O=c1oc2ccccc2c(O)c1-c1cc(-c2c(F)cccc2Cl)nc(O)n1`, for which the IC50 in the experiment on A549 [1] came out at 5.1 µM.

For the compound `N#Cc1c(-c2c(F)cccc2Cl)cc(-c2c(O)c3ccccc3oc2=O)nc1N`, the IC50 in the experiment with A549 [1] worked out at 46.3 µM.

For `O=c1oc2ccccc2c(O)c1C1=NNC(c2c(F)cccc2Cl)C1` (stereo not given), the IC50 in the experiment with A549 [1] amounted to 23.5 µM.

As to `O=c1oc2ccccc2c(O)c1-c1cc(-c2c(F)cccc2Cl)nc(S)n1`, the IC50 in the experiment on A549 [1] came to 3.98 µM; in the experiment with WI-38, 30.5 µM.

With `O=c1oc2ccccc2c(O)c1-c1cc(-c2ccc(F)cc2)nc(O)n1`, the values for the IC50 with A549 [1] and in the experiment on WI-38 were 2.39 µM and 37.8 µM, respectively.

As for `O=c1oc2ccccc2c(O)c1C1=NNC(c2ccc(F)cc2)C1` (stereo not given), the values for the concentration for half-maximal inhibition (IC50) in the experiment on A549 [1] and with WI-38 were 1.05 µM and 19.9 µM, respectively.

Regarding `COc1cccc(-c2cc(-c3c(O)c4ccccc4oc3=O)nc(O)n2)c1`, in the experiment with A549 [1], the IC50 came out at 5.55 µM.

For `COc1cccc(-c2cc(-c3c(O)c4ccccc4oc3=O)nc(S)n2)c1`, the concentration for half-maximal inhibition (IC50) with A549 [1] turned out to be 10.2 µM.

For the compound `COc1ccc(C2CC(c3c(O)c4ccccc4oc3=O)=NN2)cc1OC` (stereo not given), the IC50 in the experiment on A549 [1] is 7.58 µM.

Consider `COc1ccc(-c2cc(-c3c(O)c4ccccc4oc3=O)nc(O)n2)cc1OC`, for which the half-maximal inhibitory concentration (IC50) in the experiment on A549 [1] turned out to be 21.7 µM.

Take `COc1cc(-c2cc(-c3c(O)c4ccccc4oc3=O)nc(N)c2C#N)ccc1O`: in the experiment on A549 [1], the 50% inhibitory concentration (IC50) was determined as 38.5 µM.

Consider `COc1cc(-c2cc(-c3c(O)c4ccccc4oc3=O)nc(O)n2)ccc1O`, for which the half-maximal inhibitory concentration (IC50) with A549 [1] was 138 µM.

`COc1cc(C2CC(c3c(O)c4ccccc4oc3=O)=NN2)ccc1O` (stereo not given): the concentration for half-maximal inhibition (IC50) in the experiment with A549 [1] was determined as 8.4 µM.

`COc1cccc(-c2cc(-c3c(O)c4ccccc4oc3=O)nc(N)c2C#N)c1`: the Activity with A549 [2] is given as 4.67%; in the experiment on A549 [3], 38.55%; in the experiment on A549 [4], 22.37%; in the experiment with A549 [6] it was 42.14%; in the experiment on A549 [7], 11.32%; in the experiment with A549 [10], 17.12%. For the same compound, in the experiment on A549 [12], the Activity was 58.89%. In addition, the IC50 in experiment [5] was 0.033 µM; in the experiment on A549 [1], 2.38 µM; in experiment [8], 0.042 µM; in [9], 0.02 µM; in experiment [11], 0.021 µM; in the experiment with WI-38, 53.8 µM.

With `COc1ccc(-c2cc(-c3c(O)c4ccccc4oc3=O)nc(S)n2)cc1OC`, the IC50 with A549 [1] came out at 62.6 µM.

Regarding `COc1cccc(C2CC(c3c(O)c4ccccc4oc3=O)=NN2)c1` (stereo not given), the IC50 in the experiment with A549 [1] turned out to be 5.91 µM.

As usually defined, the IC50 is the midpoint of a concentration-inhibition curve.
